Data from US6348309B1, “Process for inactivating viruses in blood and blood products” (priority 1989, dated 2002).
Marks after values point to notes of the source that are not given here.

What was measured:
VSV = format: cell-based, vesicular stomatitis virus
Suid Herpes Type 1 = format: cell-based
Bovine Herpes = assay: MB/light virus inactivation in plasma (Example 6, Table VI); format: cell-based; conditions: illumination 30 min; * production conditions, plastic bag 250-300 ml plasma

For `CN(C)c1ccc2nc3ccc(=[N+](C)C)cc-3sc2c1` [MB, methylene blue], the “inactivation of VSV” value (VSV) was “only partial inactivation”, the “time until viral infectivity almost completely reduced to the detection limit” value (VSV) was 15 to 30 min and the “Inactivation Rate” value (Suid Herpes Type 1) was 4.43 * log10 TCID50. For the same compound, the “Inactivation Rate” value (Bovine Herpes) was >8.11 * log10 TCID50.
